Results on four molecules are retold here after patent US8273780B2, “Polycyclic antagonists of lysophosphatidic acid receptors” (Amira Pharmaceuticals, Inc., priority 2009, dated 2012).

For experiment [1], the target named is T1, Human LPA1 (Homo sapiens, UniProt Q92633).
T1 construct: the full-length cDNA for human LPA1 was obtained by PCR of the reverse transcription reaction; expressed in transfected cells
As to the kind of experiment: LPA1 calcium flux assay. It is filed as cell-based. The note with it: CHO cells expressing human LPA1, 10 nM LPA; read-out: HLPA1 Ca Flux IC50. How it is done: A 1.1 kb cDNA encoding the human LPA1 receptor was cloned from human lung. Human lung RNA (Clontech Laboratories, Inc. USA) was reverse transcribed using the RETROscript kit (Ambion, Inc.) and the full-length cDNA for human LPA1 was obtained by PCR of the reverse transcription reaction. The nucleotide sequence of the cloned human LPA1 was determined by sequencing and confirmed to be identical to the published human LPA1 sequence (An et al. Biochem. Biophys. Res. Commun. 231:619 (1997). The cDNA was cloned into the pcDNA5/FRT expression plasmid and transfected in CHO cells using lipofectamine 2000 (Invitrogen Corp., USA). Clones stably expressing human LPA1 were selected using hygromycin and identified as cells that show Ca-influx in response to LPA.
(§1) Human LPA1 or LPA3 expressing CHO cells are seeded at 20,000-45,000 cells per well in a 96-well poly-D-lysine coated plate one or two days before the assay. Prior to the assay, the cells are washed once with PBS and then cultured in serum-free media overnight. On the day of the assay, a calcium indicator dye (Calcium 4, Molecular Devices) in assay buffer (HBSS with Ca^2+and Mg^2+ and containing 20 mM Hepes and 0.3% fatty-acid free human serum albumin) is added to each well and incubation continued for 1 hour at 37° C. 10 μl of test compounds in 2.5% DMSO are added to the cells and incubation continued at room temperature for 30 minutes. Cells are the stimulated by the addition of 10 nM LPA and intracellular Ca^2+ measured using the Flexstation 3 (Molecular Devices). IC50s are determined using Graphpad prism analysis of drug titration curves.
(A change in cytosolic calcium serves as a functional read-out for many receptors and channels.)

Experiment [2] has as its target T2, Human LPA3 (Homo sapiens, UniProt Q9UBY5).
T2 construct: The full-length cDNA fragment for human LPA3 was obtained by PCR from the vector; expressed in transfected cells; cDNA from the Missouri S&T cDNA Resource Center
T2 sequence (Q9UBY5 1-353): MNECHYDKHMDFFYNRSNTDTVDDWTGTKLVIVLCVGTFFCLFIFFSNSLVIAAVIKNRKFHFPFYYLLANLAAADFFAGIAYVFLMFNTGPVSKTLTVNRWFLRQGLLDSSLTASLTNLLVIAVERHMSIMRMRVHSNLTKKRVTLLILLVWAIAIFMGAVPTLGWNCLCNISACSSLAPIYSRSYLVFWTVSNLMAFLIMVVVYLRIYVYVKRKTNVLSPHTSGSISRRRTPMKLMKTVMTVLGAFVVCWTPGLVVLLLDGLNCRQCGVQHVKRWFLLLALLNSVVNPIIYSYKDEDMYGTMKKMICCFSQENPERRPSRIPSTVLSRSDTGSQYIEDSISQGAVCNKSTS
The experiment in a line: LPA3 calcium flux assay. It is filed as cell-based. The note with it: CHO cells expressing human LPA3, 10 nM LPA; read-out: HLPA3 Ca Flux IC50. The method, then: A vector containing the human LPA3 receptor cDNA was obtained from the Missouri S&T cDNA Resource Center (www.cdna.org). The full-length cDNA fragment for human LPA3 was obtained by PCR from the vector. The nucleotide sequence of the cloned human LPA3 was determined by sequencing and confirmed to be identical to the published human LPA3 sequence (NCBI accession number NM_012152). The cDNA was cloned into the pcDNA5/FRT expression plasmid and transfected in CHO cells using lipofectamine 2000 (Invitrogen Corp., USA). Clones stably expressing human LPA3 were selected using hygromycin and identified as cells that show Ca-influx in response to LPA.
as §1

In experiment [3] the test system is human A2058 melanoma cells. The experiment in a line: LPA1 chemotaxis assay. In kind it is cell-based. The note with it: 100 nM LPA, read-out: inhibition of LPA-driven chemotaxis IC50. The method, then: Chemotaxis of the A2058 human melanoma cells was measured using the Neuroprobe ChemoTx® System plates (8 μM pore size, 5.7 mm diameter sites). The filter sites were coated with 0.001% fibronectin (Sigma) in 20 mM Hepes, pH 7.4 and allowed to dry. A2058 cells were serum-starved for 24 hours, then harvested with Cell Stripper and resuspended in DMEM containing 0.1% fatty-acid-free bovine serum albumin (BSA) to a concentration of 1×10^6/ml. Cells were mixed with an equal volume of test compound (2×) in DMEM containing 0.1% fatty-acid-free BSA and incubated at 37° C. for 15 minutes. LPA (100 nM in DMEM containing 0.1% fatty-acid-free BSA) or vehicle was added to each well of the lower chamber and 50 μl of the cell suspension/test compound mix was applied to the upper portion of the ChemoTx plate. Plates were incubated at 37° C. for three hours and then the cells removed from the upper portion by rinsing with PBS and scraping. The filter was dried then stained with HEMA 3 Staining System (Fisher Scientific). The absorbance of the filter was read at 590 nm and IC50s were determined using Symyx Assay Explorer.

The subject of experiment [4] is pancreatic cancer cell lines. The note with it: in response to LPA and peritoneal fluid (ascites) from pancreatic cancer patients; cited from earlier work.
The subject of experiment [5] is highly peritoneal metastatic pancreatic cancer cell line. The note with it: LPA-induced and ascites-induced; cited from earlier work.
For experiment [6], the system named is UUO mice. The note with it: in LPA1 (−/−) mice renal fibrosis was significantly attenuated; cited from earlier work.

T1 sequence (Q92633 whole entry): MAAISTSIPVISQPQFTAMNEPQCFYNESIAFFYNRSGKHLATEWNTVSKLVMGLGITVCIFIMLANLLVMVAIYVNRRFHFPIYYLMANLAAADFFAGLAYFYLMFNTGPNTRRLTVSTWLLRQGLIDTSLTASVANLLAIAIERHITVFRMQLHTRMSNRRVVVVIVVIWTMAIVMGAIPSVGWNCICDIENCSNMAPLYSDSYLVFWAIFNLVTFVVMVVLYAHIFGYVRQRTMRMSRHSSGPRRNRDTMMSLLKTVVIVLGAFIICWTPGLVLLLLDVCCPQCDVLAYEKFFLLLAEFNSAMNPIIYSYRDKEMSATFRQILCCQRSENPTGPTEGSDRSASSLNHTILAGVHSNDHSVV

Regarding `Cc1noc(-c2ccc(-c3ccc(C4(C(=O)NS(=O)(=O)c5ccccc5)CC4)cc3)cc2)c1NC(=O)O[C@H](C)c1ccccc1` [Compound 36, {5-[4′-(1-Benzenesulfonylaminocarbonyl-cyclopropyl)-biphenyl-4-yl]-3-methyl-isoxazol-4-yl}-carbamic acid (R)-1-phenyl-ethyl ester], the results for the IC50 in experiment [1], in experiment [2] and in experiment [3] were under 300 nM, 1000 to 10000 nM and under 100 nM, respectively.
Consider `Cc1noc(-c2ccc(-c3ccc(C4(c5nc(=O)o[nH]5)CC4)cc3)cc2)c1NC(=O)O[C@H](C)c1ccccc1` [Compound 38, (3-Methyl-5-{4′-[1-(5-oxo-2,5-dihydro-[1,2,4]oxadiazol-3-yl)-cyclopropyl]-biphenyl-4-yl}-isoxazol-4-yl)-carbamic acid (R)-1-phenyl-ethyl ester], for which the IC50 (as a rule, the midpoint of a concentration-inhibition curve) in experiment [1] was under 300 nM; in experiment [2], 1000 to 10000 nM; in experiment [3], under 100 nM.
With `Cc1noc(-c2ccc(-c3ccc(C4(c5nnn[nH]5)CC4)cc3)cc2)c1NC(=O)O[C@H](C)c1ccccc1` [Compound 39, (3-Methyl-5-{4′-[1-(1H-tetrazol-5-yl)-cyclopropyl]-biphenyl-4-yl}-isoxazol-4-yl)-carbamic acid (R)-1-phenyl-ethyl ester], the IC50 in experiment [1] was under 300 nM; in experiment [2], 1000 to 10000 nM; in experiment [3] it was under 100 nM.
Consider `Cc1noc(-c2ccc(CSCCC(=O)O)cc2)c1NC(=O)OC(C)c1ccccc1Cl` (stereo not drawn) [Ki16425], for which the in vitro migration result in experiment [4] is given as “effectively blocked”. Besides, the invasion activity result in experiment [5] is recorded as “blocked”. The “development of renal fibrosis” value in experiment [6] was “closely resembled the LPA1 (−/−) mice”.
